Assay [1] deals with Poly [ADP-ribose] polymerase 1 (Homo sapiens, UniProt P09874). The experiment in a line: Displacement of [125I]KX1 from PARP1 in human OVCAR-8 cells incubated for 1 hr by wizard gamma counter analysis. In general terms: Displacement assays read how much labelled ligand stays bound in the presence of the test substance.
For assay [2], the target named is Prostaglandin G/H synthase 1 (Homo sapiens) (UniProt P23219). The experiment in a line: Inhibition of COX-1 (unknown origin).
The target of assay [3] is Prostaglandin G/H synthase 2 (Homo sapiens) (UniProt P35354). The experiment in a line: Inhibition of COX-2 (unknown origin).
Prostaglandin G/H synthase 2 (Homo sapiens), sequence (P35354 whole entry, looked up): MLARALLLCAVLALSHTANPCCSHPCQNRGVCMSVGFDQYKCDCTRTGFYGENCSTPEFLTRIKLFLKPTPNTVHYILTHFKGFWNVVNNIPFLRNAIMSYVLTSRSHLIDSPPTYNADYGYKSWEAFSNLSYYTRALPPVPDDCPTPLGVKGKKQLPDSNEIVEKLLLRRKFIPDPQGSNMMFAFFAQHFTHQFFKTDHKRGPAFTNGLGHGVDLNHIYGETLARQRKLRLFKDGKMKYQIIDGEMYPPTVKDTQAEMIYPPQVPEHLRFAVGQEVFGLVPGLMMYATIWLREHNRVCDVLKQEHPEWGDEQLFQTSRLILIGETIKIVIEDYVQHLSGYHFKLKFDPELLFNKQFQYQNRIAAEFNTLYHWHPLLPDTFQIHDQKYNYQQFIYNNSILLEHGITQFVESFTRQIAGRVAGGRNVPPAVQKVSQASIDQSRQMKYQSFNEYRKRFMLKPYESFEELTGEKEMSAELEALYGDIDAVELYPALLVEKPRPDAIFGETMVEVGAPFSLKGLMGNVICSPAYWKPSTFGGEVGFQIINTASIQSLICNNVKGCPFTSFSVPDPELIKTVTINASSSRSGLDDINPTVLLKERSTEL

Poly [ADP-ribose] polymerase 1, sequence (P09874 whole entry): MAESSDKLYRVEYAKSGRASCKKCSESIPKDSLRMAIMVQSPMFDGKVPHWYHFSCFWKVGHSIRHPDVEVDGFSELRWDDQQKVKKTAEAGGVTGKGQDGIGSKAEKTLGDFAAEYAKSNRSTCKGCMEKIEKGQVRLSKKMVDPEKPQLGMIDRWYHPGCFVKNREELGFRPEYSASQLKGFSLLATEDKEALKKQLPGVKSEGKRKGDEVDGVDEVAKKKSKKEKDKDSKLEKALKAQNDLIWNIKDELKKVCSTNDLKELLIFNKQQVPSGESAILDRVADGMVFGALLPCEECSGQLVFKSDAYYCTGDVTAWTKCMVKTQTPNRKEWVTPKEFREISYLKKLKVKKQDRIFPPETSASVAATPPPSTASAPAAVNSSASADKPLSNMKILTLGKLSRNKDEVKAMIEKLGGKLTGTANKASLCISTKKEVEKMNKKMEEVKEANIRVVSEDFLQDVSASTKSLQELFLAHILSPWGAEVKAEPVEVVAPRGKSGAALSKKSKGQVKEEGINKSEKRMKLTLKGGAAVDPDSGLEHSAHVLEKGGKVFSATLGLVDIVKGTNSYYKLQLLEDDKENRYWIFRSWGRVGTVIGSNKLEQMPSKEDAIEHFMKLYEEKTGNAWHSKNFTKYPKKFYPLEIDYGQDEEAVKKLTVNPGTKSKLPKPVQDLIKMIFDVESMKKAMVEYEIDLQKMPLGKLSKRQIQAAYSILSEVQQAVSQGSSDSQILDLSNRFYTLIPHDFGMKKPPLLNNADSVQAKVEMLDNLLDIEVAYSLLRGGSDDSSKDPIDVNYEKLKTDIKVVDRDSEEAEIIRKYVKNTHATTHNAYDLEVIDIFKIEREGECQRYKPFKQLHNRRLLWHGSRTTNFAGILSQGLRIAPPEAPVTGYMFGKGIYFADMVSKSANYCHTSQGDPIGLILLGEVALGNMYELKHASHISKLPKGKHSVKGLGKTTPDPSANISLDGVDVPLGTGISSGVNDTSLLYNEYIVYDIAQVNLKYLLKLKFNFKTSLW

In turn, `COC1CC(NC(=O)c2cc(Cc3n[nH]c(=O)c4ccccc34)ccc2F)C1` (stereo not drawn) came in with an IC50 in assay [1] of 44 nM. In other words, the double-digit nanomolar range.

Take `COc1ccc(-c2nc(N3N=C(c4ccc(F)cc4)CCC3=O)n(C)c(=O)c2C#N)cc1`: the results for the IC50 in assay [2] and in assay [3] were 115 µM and 1400 nM, respectively.

What is called IC50 is the point on the concentration scale where inhibition reaches its midpoint. Read a high IC50 as a need for much substance.

The values above are taken from BindingDB's records for PubMed 33129590 (Key Laboratory of Technology of Drug Preparation (Zhengzhou …, 2021).
